# Laboratory results reported in ChEMBL document CHEMBL3045476, “Prediction of antiproliferative activity of some flavone derivatives: QSAR study” (2009).
# Tested on: SK-HEP1
# Test: Antiproliferative activity against Homo sapiens (human) SKHEP1 cells
# Format: functional
# Settings: SK-HEP1, read-out: pGI50 (converted)
row,GI50 [µM],Compound
1,13,CO/N=C(/COc1c(-c2ccccc2)oc2ccccc2c1=O)c1ccc(F)cc1
2,2.3,O=c1cc(-c2ccccc2)oc2cc(OC/C(=N/O)c3ccc(F)cc3)ccc12
3,7.39,CO/N=C(/COc1ccc2c(=O)c(-c3ccccc3)coc2c1)c1ccccc1
4,2.8,O=c1cc(-c2ccccc2)oc2ccc(OC/C(=N/O)c3ccc(F)cc3)cc12
5,2,CO/N=C(/COc1ccc2oc(-c3ccccc3)cc(=O)c2c1)c1ccc(OC)cc1
6,4.79,CO/N=C(/COc1ccc2c(=O)cc(-c3ccccc3)oc2c1)c1ccc(OC)cc1
7,6.39,CO/N=C(\C)COc1ccc2c(=O)c(-c3ccccc3)coc2c1
8,9.2,CO/N=C(\C)COc1c(-c2ccccc2)oc2ccccc2c1=O
9,5.29,CO/N=C(/COc1ccc2c(=O)c(-c3ccccc3)coc2c1)c1ccc(OC)cc1
10,7.29,C/C(COc1ccc2c(=O)c(-c3ccccc3)coc2c1)=N\O
11,7.9,CO/N=C(/COc1ccc2oc(-c3ccccc3)cc(=O)c2c1)c1ccc(F)cc1
12,7.11,CO/N=C(/COc1c(-c2ccccc2)oc2ccccc2c1=O)c1ccccc1
13,8.2,CO/N=C(/COc1ccc2oc(-c3ccccc3)cc(=O)c2c1)c1ccccc1
14,3.3,CO/N=C(/COc1ccc2c(=O)cc(-c3ccccc3)oc2c1)c1ccc(F)cc1
15,2.8,C/C(COc1ccc2c(=O)cc(-c3ccccc3)oc2c1)=N\O
16,2,CO/N=C(/COc1ccc2c(=O)cc(-c3ccccc3)oc2c1)c1ccccc1
17,2.7,COc1ccc(/C(COc2c(-c3ccccc3)oc3ccccc3c2=O)=N\O)cc1
18,2,O=c1cc(-c2ccccc2)oc2cc(OC/C(=N/O)c3ccccc3)ccc12
19,6.39,O=c1c(-c2ccccc2)coc2cc(OC/C(=N/O)c3ccccc3)ccc12
20,6.09,CO/N=C(/COc1ccc2c(=O)c(-c3ccccc3)coc2c1)c1ccc(F)cc1
21,1.9,C/C(COc1ccc2oc(-c3ccccc3)cc(=O)c2c1)=N\O
22,11,CO/N=C(/COc1c(-c2ccccc2)oc2ccccc2c1=O)c1ccc(OC)cc1
23,2.6,C/C(COc1c(-c2ccccc2)oc2ccccc2c1=O)=N\O
24,7.21,O=c1c(OC/C(=N/O)c2ccccc2)c(-c2ccccc2)oc2ccccc12
25,5.5,COc1ccc(/C(COc2ccc3c(=O)c(-c4ccccc4)coc3c2)=N\O)cc1
26,6.9,O=c1c(OC/C(=N/O)c2ccc(F)cc2)c(-c2ccccc2)oc2ccccc12
27,5.59,COc1ccc(/C(COc2ccc3c(=O)cc(-c4ccccc4)oc3c2)=N\O)cc1
28,6.6,O=c1c(-c2ccccc2)coc2cc(OC/C(=N/O)c3ccc(F)cc3)ccc12
29,2,CO/N=C(\C)COc1ccc2c(=O)cc(-c3ccccc3)oc2c1
